Measured values published in ChEMBL document CHEMBL1201862, “PubChem BioAssay data set” (2004).
Activity calls are given as the source filed them.

Key:
Vero [1] = experiment: cells; format: functional, cell-based; conditions: Chlorocebus sabaeus
Vero [2] = experiment: cells; format: functional; conditions: Chlorocebus sabaeus
HEK293 = experiment: cells; format: functional, cell-based; conditions: Homo sapiens
[3] = target: T1, Nuclear receptor subfamily 0 group B member 1 (Homo sapiens, UniProt P51843); experiment: Luminescence-based cell-based high throughput dose response assay for inhibitors of the orphan nuclear receptor subfamily 0, group B, member 1 (DAX1; NR0B1). [Related pubchem assays (depositor defined):AID504766, AID504790]; format: functional
T1 sequence (P51843 whole entry): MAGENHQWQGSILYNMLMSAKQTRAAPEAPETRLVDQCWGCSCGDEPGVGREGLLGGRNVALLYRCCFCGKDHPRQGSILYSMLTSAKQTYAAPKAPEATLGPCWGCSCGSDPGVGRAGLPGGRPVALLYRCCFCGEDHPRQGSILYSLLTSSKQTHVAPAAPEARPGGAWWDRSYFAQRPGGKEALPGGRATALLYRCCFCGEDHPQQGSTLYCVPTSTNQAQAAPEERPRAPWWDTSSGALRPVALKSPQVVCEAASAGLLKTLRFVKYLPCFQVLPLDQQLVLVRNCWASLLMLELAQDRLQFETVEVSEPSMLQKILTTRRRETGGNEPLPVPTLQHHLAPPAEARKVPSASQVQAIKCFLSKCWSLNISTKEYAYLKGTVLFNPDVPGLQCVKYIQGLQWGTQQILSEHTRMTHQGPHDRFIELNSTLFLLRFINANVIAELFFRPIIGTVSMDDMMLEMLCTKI

H4 = experiment: Luminescence Cell-Based Dose Response HTS to Identify Activators of 5'UTR Stem-Loop Driven Prion Protein mRNA Translation in H4 Neuroglioblastoma Cells. [Related pubchem assays: 1829 (Project Summary), 1814 (Primary HTS)]; format: functional; conditions: Homo sapiens
Protein skinhead-1 = target: T2, Protein skinhead-1 (Caenorhabditis elegans, UniProt P34707); format: functional
T2 sequence (P34707 whole entry): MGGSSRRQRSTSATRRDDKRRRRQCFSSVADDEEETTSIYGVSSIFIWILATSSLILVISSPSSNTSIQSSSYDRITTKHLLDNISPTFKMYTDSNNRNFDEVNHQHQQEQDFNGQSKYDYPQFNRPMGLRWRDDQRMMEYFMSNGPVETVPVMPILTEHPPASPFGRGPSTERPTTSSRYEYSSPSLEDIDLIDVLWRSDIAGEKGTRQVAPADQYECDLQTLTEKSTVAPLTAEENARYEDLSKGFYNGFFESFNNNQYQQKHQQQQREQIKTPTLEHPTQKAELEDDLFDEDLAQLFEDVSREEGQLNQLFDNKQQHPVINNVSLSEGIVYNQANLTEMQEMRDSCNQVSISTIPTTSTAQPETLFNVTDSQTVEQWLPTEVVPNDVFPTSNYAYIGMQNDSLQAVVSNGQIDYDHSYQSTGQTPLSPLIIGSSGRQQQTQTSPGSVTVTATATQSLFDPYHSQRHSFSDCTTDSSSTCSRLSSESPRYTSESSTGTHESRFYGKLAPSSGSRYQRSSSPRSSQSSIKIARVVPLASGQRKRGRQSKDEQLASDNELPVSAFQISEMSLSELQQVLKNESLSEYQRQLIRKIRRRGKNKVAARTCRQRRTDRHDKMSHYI

Cytochrome P450 2C9 = Cytochrome P450 2C9 (Homo sapiens, UniProt P11712)
Cytochrome P450 3A4 = Cytochrome P450 3A4 (Homo sapiens, UniProt P08684);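 note: CYP3A4 tested as one member of a cytochrome P450 panel screen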
[4] = inhibitors of firefly luciferase expression or activity, dose response, H4 neuroglioma cells, luminescence (AID 1990); format: functional, cell-based
[5] = Luminescence Cell-Based Dose Response HTS to Identify Inhibitors of 5'UTR Stem-Loop Driven Prion Protein mRNA Translation in H4 Neuroglioblastoma Cells. [Related pubchem assays: 1827 (Project Summary), 1813 (Primary HTS)]; format: functional
[6] = inhibitors of SNCA 5'UTR-driven reporter translation, confirmation, H4 neuroglioma cells, luminescence (AID 1988); format: functional, cell-based
[7] = cytotoxicity in HEK-293T cells, dose response, cytotoxicity control for TCR NF-kB inhibitor project, luminescence, T-cell screen hits (AID 489026); format: functional, cell-based;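 note: cells exposed to compound about 14 hours before the viability readout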
INS1 = experiment: beta cell apoptosis inhibitors, cytokine rescue, dose response, luminescence, retest (AID 449756); format: functional, cell-based; conditions: Rattus norvegicus;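 note: cell death triggered by IL-1 beta plus TNF-alpha plus IFN-gamma mixture; protective hits raise ATP signal compared with cytokine alone wells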
[8] = target: T3, Voltage-gated N-type calcium channel alpha-1B subunit/Amyloid beta A4 precursor protein-binding family A member 1 (Homo sapiens, UniProt Q00975+Q02410); format: protein assay
[9] = target: T3, Voltage-gated N-type calcium channel alpha-1B subunit/Amyloid beta A4 precursor protein-binding family A member 1; format: protein assay; remark: listed apart in the source
[10] = target: T4, Heat shock factor protein 1 (Mus musculus, UniProt P38532); experiment: HSF1 potentiators in luciferase reporter cells, confirmation, cell-based, NIH3T3, luminescence, dose retest (AID 435004); format: functional;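 note: stress induced by proteasome inhibitor MG132 added 30 min after compound; luciferase reporter driven by HSF1 response element in NIH3T3 cells; actives raise luminescence as potentiators of the MG132 stress response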
T4 sequence (P38532 whole entry): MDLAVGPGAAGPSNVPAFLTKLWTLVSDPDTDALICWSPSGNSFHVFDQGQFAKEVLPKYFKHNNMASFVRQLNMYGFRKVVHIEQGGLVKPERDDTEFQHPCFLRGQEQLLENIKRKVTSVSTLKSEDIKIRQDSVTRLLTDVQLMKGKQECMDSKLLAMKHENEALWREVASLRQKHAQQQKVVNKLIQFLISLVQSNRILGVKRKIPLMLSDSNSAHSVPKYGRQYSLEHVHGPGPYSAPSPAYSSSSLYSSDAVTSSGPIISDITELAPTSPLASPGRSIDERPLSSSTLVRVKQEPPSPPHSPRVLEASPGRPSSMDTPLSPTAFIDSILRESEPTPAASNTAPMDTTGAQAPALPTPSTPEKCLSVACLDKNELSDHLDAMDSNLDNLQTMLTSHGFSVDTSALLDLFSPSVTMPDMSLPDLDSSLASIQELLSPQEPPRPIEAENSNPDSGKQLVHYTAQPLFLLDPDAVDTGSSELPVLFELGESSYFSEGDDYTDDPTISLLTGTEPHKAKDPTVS

Paired box protein Pax-8 = Paired box protein Pax-8 (Homo sapiens, UniProt Q06710); experiment: inhibitors of PAX8-driven TPO luciferase reporter, dose response, RMG-I cells, cherry-pick (AID 687027); format: functional, cell-based;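 note: luciferase reporter driven by Pax8 target thyroperoxidase promoter measured by SteadyGlo luminescence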
[11] = non-specific cell cytotoxicity, dose response, cytotoxicity control for PAX8 inhibitor project, plate reader, dry powder samples (AID 743021); format: functional, cell-based
[12] = growth suppression of PTEN-null colon cells, dose response, cell-based, HCT116 PTEN knockout (AID 1047); format: functional;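 note: HCT116 colon tumor cells with PTEN knocked out; cells exposed to compound for 60 hours before readout; potency for loss of cell viability measured by luminescence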
[13] = growth suppression of beta-catenin-knockout colon cells, dose response, cell-based, HCT116, human colon tumor (AID 1045); format: functional;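 note: HCT116 colon tumor cells with beta catenin knocked out; cells exposed to compound for 60 hours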
Cytochrome P450 2D6 = Cytochrome P450 2D6 (Homo sapiens, UniProt P10635);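 note: CYP2D6 member of a cytochrome P450 panel assay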
[14] = insulin promoter down-regulators in MIN6 cells, imaging, high-content screening, mouse beta cells (AID 1628); format: functional
[15] = system: Streptococcus sp. 'group A'; experiment: growth inhibition of control SK(-) GAS strain, dose response, counter-screen for streptokinase expression inhibitor project, luminescence, kanamycin, BacTiterGlo, confirmation (AID 1900); format: functional, organism-based
cells [16] = format: functional, cell-based
[17] = cytotoxicity in MIN6 insulinoma cells, dose response, cytotoxicity control, cell-based, mouse insulinoma (AID 2122); format: functional;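 note: confirmatory high-throughput counterscreen run to flag cytotoxic compounds; mouse MIN-6 beta cells carrying an insulin promoter eGFP reporter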
[18] = inhibitors of intracellular T. cruzi replication, confirmation, NIH3T3 host cells, beta-gal luminescence (AID 2044); format: functional, cell-based;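 note: intracellular parasites grown in NIH/3T3 mouse fibroblasts as host cells; luminescent beta-galactosidase reporter signal from transgenic T. cruzi replicating inside host cells; inhibitors lower the luminescence signal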
cells [19] = format: functional, cell-based; remark: listed apart in the source
[20] = cytotoxicity toward NIH3T3 fibroblasts, dose response, counter-screen, cell-based, ATP luminescence, mouse fibroblasts (AID 2010); format: functional;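 note: cells exposed to compound for about 90 hours before reading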
Streptococcus = experiment: Group A Streptococcus viability loss, dose response, counter-screen for streptokinase expression inhibitor project, luminescence, BacTiterGlo (AID 1915); format: functional, organism-based;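 note: potency for reduction of bacterial viability or growth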
[21] = Luminescence Cell-Based Dose Retest to Confirm Inhibitors of Cancer Stem Cells. [Related pubchem assays (depositor defined):AID2717, AID2721]; format: functional; conditions: Homo sapiens

Cytochrome P450 3A4, sequence (P08684 whole entry): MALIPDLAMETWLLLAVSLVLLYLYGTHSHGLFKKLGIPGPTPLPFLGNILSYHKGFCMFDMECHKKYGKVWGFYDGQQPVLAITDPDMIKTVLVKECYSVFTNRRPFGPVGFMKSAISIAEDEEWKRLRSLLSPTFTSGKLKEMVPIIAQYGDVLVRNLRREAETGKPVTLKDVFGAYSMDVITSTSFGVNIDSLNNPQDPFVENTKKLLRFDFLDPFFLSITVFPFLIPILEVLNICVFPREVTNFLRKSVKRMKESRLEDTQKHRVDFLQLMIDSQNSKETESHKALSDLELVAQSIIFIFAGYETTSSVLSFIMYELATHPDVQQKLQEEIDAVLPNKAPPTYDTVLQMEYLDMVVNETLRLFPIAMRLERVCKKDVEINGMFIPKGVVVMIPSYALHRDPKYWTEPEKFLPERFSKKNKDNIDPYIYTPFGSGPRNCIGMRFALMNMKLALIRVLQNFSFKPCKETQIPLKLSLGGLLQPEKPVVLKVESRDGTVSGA
T3 sequence (Q00975 whole entry): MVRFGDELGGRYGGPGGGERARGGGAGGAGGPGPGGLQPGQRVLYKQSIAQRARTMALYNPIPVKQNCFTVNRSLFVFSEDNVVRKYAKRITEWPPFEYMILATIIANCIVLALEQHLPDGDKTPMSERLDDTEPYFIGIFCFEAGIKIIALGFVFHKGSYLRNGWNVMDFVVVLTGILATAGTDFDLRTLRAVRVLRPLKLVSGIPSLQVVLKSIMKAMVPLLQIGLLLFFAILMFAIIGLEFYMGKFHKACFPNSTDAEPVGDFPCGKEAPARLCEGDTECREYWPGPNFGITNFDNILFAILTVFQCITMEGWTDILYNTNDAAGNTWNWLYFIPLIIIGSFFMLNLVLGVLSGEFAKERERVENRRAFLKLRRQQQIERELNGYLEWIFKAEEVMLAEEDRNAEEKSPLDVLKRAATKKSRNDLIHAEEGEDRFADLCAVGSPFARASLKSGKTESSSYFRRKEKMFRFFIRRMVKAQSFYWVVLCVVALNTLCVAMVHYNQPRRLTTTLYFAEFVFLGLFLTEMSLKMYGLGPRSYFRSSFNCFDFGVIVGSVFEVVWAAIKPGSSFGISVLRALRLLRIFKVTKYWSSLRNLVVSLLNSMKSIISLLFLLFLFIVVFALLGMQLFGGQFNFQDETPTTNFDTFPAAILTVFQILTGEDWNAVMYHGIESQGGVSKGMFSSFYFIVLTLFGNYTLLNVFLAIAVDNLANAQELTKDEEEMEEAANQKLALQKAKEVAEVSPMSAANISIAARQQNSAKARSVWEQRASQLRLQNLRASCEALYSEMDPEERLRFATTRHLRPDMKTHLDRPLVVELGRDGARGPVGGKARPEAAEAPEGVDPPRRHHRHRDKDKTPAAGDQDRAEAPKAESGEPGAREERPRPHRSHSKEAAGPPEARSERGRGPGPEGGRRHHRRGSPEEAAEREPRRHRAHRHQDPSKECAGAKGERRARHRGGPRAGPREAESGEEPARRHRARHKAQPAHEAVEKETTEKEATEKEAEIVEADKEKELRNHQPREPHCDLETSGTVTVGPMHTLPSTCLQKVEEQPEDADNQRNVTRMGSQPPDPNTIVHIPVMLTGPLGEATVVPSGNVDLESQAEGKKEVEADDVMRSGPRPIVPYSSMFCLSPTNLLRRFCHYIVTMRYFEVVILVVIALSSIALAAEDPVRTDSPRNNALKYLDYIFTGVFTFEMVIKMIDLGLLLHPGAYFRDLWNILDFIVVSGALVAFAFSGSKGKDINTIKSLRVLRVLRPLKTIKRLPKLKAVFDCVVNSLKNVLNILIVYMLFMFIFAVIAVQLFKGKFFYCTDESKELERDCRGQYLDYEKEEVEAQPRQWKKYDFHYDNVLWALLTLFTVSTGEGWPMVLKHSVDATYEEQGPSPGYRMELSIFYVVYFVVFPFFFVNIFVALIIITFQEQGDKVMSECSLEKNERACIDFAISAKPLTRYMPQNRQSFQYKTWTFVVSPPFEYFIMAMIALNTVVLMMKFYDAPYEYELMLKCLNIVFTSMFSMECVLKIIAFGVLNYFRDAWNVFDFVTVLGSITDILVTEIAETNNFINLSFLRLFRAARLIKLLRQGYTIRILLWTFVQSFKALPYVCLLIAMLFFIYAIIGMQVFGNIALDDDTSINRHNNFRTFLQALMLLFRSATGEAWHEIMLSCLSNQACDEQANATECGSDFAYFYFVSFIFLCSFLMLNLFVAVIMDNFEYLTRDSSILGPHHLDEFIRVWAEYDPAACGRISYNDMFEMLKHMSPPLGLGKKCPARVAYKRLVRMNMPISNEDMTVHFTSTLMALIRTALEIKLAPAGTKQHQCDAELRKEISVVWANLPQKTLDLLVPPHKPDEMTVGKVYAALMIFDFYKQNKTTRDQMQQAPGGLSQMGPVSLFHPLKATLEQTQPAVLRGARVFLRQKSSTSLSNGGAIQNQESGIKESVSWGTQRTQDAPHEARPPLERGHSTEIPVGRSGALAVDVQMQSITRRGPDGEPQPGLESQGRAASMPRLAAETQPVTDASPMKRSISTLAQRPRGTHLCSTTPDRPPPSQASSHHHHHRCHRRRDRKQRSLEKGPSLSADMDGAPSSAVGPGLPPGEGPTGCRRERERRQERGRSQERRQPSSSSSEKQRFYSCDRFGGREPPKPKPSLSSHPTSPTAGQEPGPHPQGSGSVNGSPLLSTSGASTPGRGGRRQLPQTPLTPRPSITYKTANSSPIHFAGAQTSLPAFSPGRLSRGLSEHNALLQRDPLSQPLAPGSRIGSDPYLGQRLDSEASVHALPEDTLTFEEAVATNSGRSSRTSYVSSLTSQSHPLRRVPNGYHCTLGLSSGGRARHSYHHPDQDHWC
T3 sequence (Q02410 whole entry): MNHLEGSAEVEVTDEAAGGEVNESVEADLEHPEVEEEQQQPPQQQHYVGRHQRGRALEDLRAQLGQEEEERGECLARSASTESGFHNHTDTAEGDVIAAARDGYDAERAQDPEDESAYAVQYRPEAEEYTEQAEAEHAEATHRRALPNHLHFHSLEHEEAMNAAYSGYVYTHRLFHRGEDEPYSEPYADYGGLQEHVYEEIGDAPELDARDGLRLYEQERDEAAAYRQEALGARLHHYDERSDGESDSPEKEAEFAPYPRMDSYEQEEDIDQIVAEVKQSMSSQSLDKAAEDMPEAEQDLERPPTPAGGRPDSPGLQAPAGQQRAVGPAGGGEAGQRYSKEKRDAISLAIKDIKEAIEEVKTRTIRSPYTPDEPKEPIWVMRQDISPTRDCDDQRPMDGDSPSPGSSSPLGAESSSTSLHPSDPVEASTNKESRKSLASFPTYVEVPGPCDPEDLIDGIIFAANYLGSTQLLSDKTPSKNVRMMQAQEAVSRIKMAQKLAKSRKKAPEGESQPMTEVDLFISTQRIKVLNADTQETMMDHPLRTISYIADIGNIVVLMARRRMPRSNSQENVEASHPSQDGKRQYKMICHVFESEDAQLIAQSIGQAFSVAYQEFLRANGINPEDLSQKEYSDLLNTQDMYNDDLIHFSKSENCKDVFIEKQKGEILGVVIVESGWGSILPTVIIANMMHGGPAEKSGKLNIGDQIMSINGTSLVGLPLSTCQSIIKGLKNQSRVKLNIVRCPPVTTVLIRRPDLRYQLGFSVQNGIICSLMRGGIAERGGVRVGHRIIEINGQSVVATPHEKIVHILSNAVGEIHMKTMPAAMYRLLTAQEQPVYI
Cytochrome P450 2C9, sequence (P11712 whole entry): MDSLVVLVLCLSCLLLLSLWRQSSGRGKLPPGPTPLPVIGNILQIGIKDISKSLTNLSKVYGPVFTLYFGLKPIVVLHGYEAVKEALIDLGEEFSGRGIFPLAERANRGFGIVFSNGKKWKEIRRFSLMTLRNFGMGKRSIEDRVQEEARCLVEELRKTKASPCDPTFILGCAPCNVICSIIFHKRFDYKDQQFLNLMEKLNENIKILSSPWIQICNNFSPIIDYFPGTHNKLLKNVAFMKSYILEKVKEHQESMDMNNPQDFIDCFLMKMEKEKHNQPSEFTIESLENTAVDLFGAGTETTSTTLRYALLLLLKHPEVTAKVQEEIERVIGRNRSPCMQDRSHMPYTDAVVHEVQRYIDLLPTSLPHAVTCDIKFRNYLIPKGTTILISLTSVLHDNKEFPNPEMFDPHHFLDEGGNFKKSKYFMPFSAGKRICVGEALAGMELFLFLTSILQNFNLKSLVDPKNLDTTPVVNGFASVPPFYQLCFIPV
Paired box protein Pax-8, sequence (Q06710 whole entry): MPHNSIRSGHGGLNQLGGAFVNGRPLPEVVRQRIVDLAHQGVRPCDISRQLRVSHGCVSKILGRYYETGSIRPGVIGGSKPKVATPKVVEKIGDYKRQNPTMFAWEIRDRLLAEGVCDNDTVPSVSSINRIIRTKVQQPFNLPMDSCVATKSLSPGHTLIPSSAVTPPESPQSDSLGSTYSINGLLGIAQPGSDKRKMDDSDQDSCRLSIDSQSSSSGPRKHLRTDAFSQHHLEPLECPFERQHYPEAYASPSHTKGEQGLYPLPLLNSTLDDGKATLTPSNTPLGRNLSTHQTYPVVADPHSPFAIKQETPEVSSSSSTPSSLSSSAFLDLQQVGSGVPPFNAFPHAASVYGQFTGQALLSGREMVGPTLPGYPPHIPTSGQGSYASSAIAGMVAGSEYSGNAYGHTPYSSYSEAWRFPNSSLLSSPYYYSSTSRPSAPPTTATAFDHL

With `Cc1ccc(/C=C/C(=O)c2c(C)nc3ccccn23)cc1` the IC50 (Vero [1]) was > 25 µM (active) and the CC50 (Vero [2]) was 17.6 µM (active).
In the case of `COc1ccc(N2CCN(C(=O)C3CCN(S(=O)(=O)c4ccc(C)cc4)CC3)CC2)cc1`, the IC50 (HEK293) is reported as > 67.5 µM (inactive) and the IC50 [3] is reported as > 67.5 µM (inactive).
With `Cc1ccccc1C(=O)Nc1ccc2c(c1)CCCN2C(=O)c1cccs1` the IC50 (Vero [1]) was 7.77 µM (active) and the CC50 (Vero [2]) was > 25 µM (active).
For `O=[N+]([O-])c1ccc2nc(-c3ccc(Cl)cc3)n(OCc3ccccc3)c2c1`, the EC50 (H4) was 0.973 µM (active), the IC50 (Protein skinhead-1) was > 100 µM (inactive) and the AC50 (Cytochrome P450 2C9) was 22.4 µM (inconclusive). The AC50 (Cytochrome P450 3A4) was “inconclusive”.
In the case of `Cc1ccc2nc(C)c(CN3CCN(c4ccc([N+](=O)[O-])cc4Cl)CC3)n2c1`, the EC50 [4] is reported as > 120 µM (not active), the EC50 [5] is reported as 17.1 µM (active) and the EC50 [6] is reported as > 120 µM (not active). For the same molecule, the IC50 [7] was > 80 µM (inactive) and the AC50 (INS1) was 1.79 µM (active).
With `COC(=O)N1CCC2(CC1)CCN(c1cccc(-c3ccccc3)c1)CC2` the AC50 (Cytochrome P450 3A4) was “inconclusive”.
In the case of `COc1ccc(N2C(=O)CC(Sc3nnnn3-c3ccc(F)cc3)C2=O)cc1` (stereo not drawn), the IC50 [8] is reported as 11 µM (active), the IC50 [9] is reported as 3.95 µM (active) and the EC50 [10] is reported as 17.1 µM (active). The AC50 (Paired box protein Pax-8) was 13.6 µM (active) and the AC50 [11] was 26.6 µM (active).
For `CC(C)N1C/C(=C/c2ccsc2)C(=O)/C(=C/c2ccsc2)C1`, the EC50 [12] was 1.39 µM (active), the EC50 [13] was 1.34 µM (active) and the IC50 (Vero [1]) was > 25 µM (active). For the same molecule, the CC50 (Vero [2]) was 5.33 µM (active).
With `C=CCn1c(SCC(=O)c2cccs2)nc2sc(C)c(C)c2c1=O` the IC50 (Vero [1]) was 24.8 µM (active).
In the case of `Clc1ccccc1-c1cc(NCc2ccccc2)ncn1`, the AC50 (Cytochrome P450 2D6) is reported as 20 µM (inconclusive) and the AC50 (Cytochrome P450 3A4) is reported as “inconclusive”.
In the case of `CN(Cc1ccccc1Cl)C(=O)CCNC(=O)c1ccco1`, the IC50 (HEK293) is reported as > 67.5 µM (inactive) and the IC50 [3] is reported as > 67.5 µM (inactive).
With `CS(=O)(=O)Nc1ccc(S(=O)(=O)N2CCOCC2)cc1` the AC50 (Cytochrome P450 3A4) was “inconclusive”.
With `CCC[C@H]1CN(c2ccccc2)C(=O)[C@@H]1CC(=O)Nc1ccc(Br)cc1` the IC50 (HEK293) was > 67.5 µM (inactive) and the IC50 [3] was > 67.5 µM (inactive).
In the case of `O=C(N/N=C/c1cc(Br)ccc1O)C(=O)Nc1ccccc1OC(F)(F)C(F)F`, the IC50 [14] is reported as 1.93 µM (active), the EC50 [15] is reported as 0.866 µM (active) and the EC50 (cells [16]) is reported as 10.9 µM (active). The IC50 [17] was 2.22 µM (active), the EC50 [18] was 0.572 µM (active) and the EC50 (cells [19]) was > 350 µM (not active). For the same molecule, the EC50 [20] was 8.61 µM (active), the EC50 (Streptococcus) was 1.82 µM (active) and the AC50 [21] was 1.62 µM (active). For the same molecule, the AC50 (INS1) was 2.17 µM (active).
